Where two headings read alike, the source gives them in different places.
Assays:
Ba/F3 cells = experiment: IL-3-stimulated proliferation of Ba/F3 cells expressing human wild-type KIT; format: cell-based; conditions: Mus musculus, BaF3, read-out: IC50 for inhibition of IL-3-stimulated proliferation
Procedure: Cells were grown for 48 hours at 37°C and then incubated with 10 µl/well of WST-1 reagent (Roche Applied Science, France) for 3 hours at 37°C. The amount of formazan dye formed was quantified by its absorbance at 450 nm using a scanning multiwell spectrophotometer (MultiSkan MS, Thermo-LabSystems, France). A blank well without cells was used as a background control for the spectrophotometer and all assays were performed in triplicate.

[1] = test system: mastocytoma cell lines carrying KIT juxtamembrane mutants; experiment: Proliferation of mastocytoma cell lines carrying KIT juxtamembrane mutants (summary); format: cell-based; conditions: summary over cell lines
CBMC = CBMC cell viability; format: cell-based, human; conditions: incubation of CBMC for up to 9 hours
Pim1 = target: T1, Pim1 (Homo sapiens, UniProt P11309); experiment: Recombinant kinase screen (Proqinase), Pim1; format: biochemical; conditions: recombinant human enzyme; single experiment, kinase screen by Proqinase
T1 construct: purchased Proqinase (Germany)
T1 sequence (P11309 whole entry): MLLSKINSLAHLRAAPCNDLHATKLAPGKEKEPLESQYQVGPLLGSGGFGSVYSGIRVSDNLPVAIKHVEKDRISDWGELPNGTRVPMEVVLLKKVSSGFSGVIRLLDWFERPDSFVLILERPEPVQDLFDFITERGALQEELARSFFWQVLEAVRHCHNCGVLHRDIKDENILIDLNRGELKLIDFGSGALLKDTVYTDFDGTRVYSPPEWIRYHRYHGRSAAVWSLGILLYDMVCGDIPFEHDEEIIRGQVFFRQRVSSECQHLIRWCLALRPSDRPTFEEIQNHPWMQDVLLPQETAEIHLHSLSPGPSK
Procedure: (§1) Full details for the generation of recombinant human KIT intracellular domain and other protein kinases (including Lyn, platelet derived growth factor receptor β, epidermal growth factor receptor, fibroblast growth factor receptor 1, Src, HCK, PYK, FES, Btk, Bmx, c-Ret, c-Fms, Syk, and c-Met) are provided in the Supplemental Methods (see Supporting Information; Methods S1). Experiments on ABL1, Akt1, protein kinase C-α, insulin-like growth factor receptor 1, and Pim1 were carried out by Proqinase (Germany). All other recombinant protein kinases were performed in-house using an enzyme-linked immunoassay; experimental details are provided in the Supplemental Methods (see Supporting Information; Methods S1).

Alk = target: T2, Alk (Homo sapiens, UniProt Q9UM73); experiment: Ba/F3 cell proliferation (WST-1), Alk; conditions: Ba/F3 cells expressing the enzyme, read-out: Cell-based assay IC50, Alk
T2 construct: expressed in transfected cells; host or cells: Ba/F3
T2 sequence (Q9UM73 19-1620, species assumed): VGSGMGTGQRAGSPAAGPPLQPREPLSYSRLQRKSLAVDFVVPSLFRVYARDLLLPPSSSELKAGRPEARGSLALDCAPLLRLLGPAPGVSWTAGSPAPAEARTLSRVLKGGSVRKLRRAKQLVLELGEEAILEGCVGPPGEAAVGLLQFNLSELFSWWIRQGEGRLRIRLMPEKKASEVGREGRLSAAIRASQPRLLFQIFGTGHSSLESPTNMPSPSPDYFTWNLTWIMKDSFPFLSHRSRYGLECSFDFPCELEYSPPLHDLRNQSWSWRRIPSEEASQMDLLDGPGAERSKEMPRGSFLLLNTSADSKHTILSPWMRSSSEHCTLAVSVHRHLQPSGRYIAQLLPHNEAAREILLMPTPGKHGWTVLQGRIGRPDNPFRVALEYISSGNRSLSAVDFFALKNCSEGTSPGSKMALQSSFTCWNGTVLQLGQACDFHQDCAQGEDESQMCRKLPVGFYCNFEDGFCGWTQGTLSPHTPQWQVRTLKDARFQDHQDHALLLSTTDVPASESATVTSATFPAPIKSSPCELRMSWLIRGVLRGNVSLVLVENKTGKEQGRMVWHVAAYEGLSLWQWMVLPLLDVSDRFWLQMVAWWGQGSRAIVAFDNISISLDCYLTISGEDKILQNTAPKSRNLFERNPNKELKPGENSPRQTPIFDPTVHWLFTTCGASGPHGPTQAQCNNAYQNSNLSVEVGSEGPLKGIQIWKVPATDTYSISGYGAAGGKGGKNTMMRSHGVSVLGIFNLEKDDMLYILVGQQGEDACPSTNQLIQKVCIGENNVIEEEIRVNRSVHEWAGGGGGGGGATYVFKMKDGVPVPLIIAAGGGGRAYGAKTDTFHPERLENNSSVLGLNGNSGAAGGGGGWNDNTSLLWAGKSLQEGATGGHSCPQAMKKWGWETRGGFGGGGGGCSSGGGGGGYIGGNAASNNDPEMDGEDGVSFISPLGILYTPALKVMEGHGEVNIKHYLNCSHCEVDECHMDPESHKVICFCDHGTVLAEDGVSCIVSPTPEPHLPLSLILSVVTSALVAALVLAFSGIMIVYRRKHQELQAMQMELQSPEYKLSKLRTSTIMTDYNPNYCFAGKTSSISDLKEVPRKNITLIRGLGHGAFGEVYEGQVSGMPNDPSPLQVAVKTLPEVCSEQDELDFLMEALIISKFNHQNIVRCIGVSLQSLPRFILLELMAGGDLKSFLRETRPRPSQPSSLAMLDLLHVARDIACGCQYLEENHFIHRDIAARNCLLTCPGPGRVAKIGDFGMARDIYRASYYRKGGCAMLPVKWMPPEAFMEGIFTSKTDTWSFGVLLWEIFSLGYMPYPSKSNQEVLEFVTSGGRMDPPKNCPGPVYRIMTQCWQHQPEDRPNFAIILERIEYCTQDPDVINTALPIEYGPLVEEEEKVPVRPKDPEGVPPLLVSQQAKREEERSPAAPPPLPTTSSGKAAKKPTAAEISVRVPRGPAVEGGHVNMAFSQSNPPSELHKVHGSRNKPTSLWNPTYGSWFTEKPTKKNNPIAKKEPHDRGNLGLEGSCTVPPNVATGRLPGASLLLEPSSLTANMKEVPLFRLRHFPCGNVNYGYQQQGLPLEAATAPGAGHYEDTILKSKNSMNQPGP

recombinant human KIT = recombinant human KIT (Homo sapiens, UniProt P10721)
recombinant human KIT, sequence (P10721 567-976): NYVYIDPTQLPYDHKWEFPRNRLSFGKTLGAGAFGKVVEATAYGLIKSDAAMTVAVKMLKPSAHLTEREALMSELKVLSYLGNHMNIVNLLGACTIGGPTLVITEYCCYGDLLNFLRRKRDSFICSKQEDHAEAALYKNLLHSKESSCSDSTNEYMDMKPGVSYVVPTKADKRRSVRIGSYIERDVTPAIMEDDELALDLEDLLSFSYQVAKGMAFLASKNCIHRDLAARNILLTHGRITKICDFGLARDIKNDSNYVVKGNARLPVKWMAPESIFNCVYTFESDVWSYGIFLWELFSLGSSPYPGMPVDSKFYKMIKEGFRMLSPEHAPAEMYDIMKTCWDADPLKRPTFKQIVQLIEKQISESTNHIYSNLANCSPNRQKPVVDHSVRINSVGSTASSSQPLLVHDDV
Procedure: Tyrosine phosphorylation by KIT was assayed by measuring the incorporation of phosphate into poly(Glu,Tyr 4∶1). […] Recombinant human KIT tyrosine kinase assays were performed using an ELISA-based assay with poly(Glu,Tyr 4∶1) as a substrate.
(§2) A 96-well microtitre plate (Immulon 2HB; ThermoLifeScience, Finland) was coated overnight with 0.25 mg/ml poly(Glu,Tyr 4:1), rinsed twice with 250 µl of washing buffer (10 mM phosphate-buffered saline [pH 7.4] and 0.05% Tween 20) and dried for 2 hours at room temperature. […] Reactions were initiated upon introduction of the enzyme and terminated with the addition of one reaction volume (50 μl) of 100 mM EDTA per 5 M urea mix. Plates were washed three times and incubated with 1:30,000 horseradish peroxidase-conjugated anti-phosphotyrosine monoclonal antibody (Sigma-Aldrich, France), then washed three times and incubated with tetramethylbenzidine. The final reaction product was quantified by spectrophotometry at 450 nm.

Solubility = format: physicochemical
Description: The chemical name is 4-(4-methylpiperazin-1-ylmethyl)-N-[4-methyl-3-(4-pyridin-3ylthiazol-2-ylamino) phenyl]benzamide-mesylate methane sulfonic acid salt, and the chemical formula is C28H30N6OS·CH4O3S (Figure 1A). […] Fresh dilutions of masitinib were made for each experiment. The imatinib used in this study was purchased from Sequoia Research (UK).

c-Met = target: T3, c-Met (Homo sapiens, UniProt P08581); experiment: Recombinant kinase ELISA assay, c-Met; format: biochemical; conditions: recombinant human enzyme; ELISA-based assay, poly(Glu,Tyr 4:1) substrate
T3 construct: c-Met (949–1398); 6xHN (N); made in house; host or cells: baculovirus, Sf9 insect cells
T3 sequence (P08581 949-1390 limits assumed): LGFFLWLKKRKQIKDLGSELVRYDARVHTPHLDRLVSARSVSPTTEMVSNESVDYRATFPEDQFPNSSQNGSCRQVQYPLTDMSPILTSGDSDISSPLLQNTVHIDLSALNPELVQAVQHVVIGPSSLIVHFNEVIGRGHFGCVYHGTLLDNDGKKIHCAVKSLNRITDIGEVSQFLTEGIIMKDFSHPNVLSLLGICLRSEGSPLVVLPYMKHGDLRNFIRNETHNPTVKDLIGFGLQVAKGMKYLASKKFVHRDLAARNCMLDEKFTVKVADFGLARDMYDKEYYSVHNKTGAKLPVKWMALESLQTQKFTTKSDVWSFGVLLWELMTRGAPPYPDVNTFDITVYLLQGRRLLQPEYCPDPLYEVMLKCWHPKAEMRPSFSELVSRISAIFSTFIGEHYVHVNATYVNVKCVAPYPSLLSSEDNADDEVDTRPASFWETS
Procedure: as §1
(§3) The sequences encoding PDGF receptor β (residues 554–1106; GenBank accession no. BC032224), Lyn B (2–583; accession no. BC059394), fibroblast growth factor receptor 1 (572–959; accession no. BC018128), Src (2–536; accession no. BC011566), Btk (2–659; accession no. BC109079), Bmx (2–675; accession no. BC016652), c-Ret (713–1114; accession no. BC004257), c-Fms (538–972; BC047531), Syk (2–612; BC011399), Hck (2-526; accession no. BC014435), Fes (2-822; accession no. BC035357), PYK2 (2-1006; accession no. BC042599) and c-Met (949–1398; accession no. lifeseq3489592) were amplified by PCR from IMAGE cDNA clones purchased from Openbiosystems. […]

[2] = target: Epidermal growth factor receptor (Homo sapiens, UniProt P00533); experiment: Recombinant kinase ELISA assay, EGFR; format: biochemical; design: The cDNA encoding the EGF receptor (664–1210); 6xHN (N); made in house; host or cells: baculovirus, Sf9 insect cells; conditions: recombinant human enzyme; ELISA-based assay, poly(Glu,Tyr 4:1) substrate
Epidermal growth factor receptor, sequence (P00533 664-1210): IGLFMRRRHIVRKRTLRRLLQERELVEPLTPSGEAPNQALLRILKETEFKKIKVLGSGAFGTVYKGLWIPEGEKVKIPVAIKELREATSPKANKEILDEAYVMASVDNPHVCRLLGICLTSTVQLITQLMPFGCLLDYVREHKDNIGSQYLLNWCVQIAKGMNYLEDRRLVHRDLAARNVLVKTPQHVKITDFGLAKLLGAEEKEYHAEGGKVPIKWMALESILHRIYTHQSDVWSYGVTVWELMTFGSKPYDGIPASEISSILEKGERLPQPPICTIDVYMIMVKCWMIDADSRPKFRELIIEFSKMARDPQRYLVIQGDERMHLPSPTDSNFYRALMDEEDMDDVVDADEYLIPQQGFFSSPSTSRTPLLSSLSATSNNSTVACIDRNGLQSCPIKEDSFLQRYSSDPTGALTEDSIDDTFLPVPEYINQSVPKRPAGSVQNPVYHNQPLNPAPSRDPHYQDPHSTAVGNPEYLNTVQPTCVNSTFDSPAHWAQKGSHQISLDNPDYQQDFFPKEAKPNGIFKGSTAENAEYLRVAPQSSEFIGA
Procedure: as §1
as §2, with “Plates were washed three times and incubated with 1:30,000 horseradish peroxidase-conjugated anti-phosphotyrosine monoclonal antibody (Sigma-Aldrich, France), then washed three times and incubated with tetramethylbenzidine.” left out

c-Fms = target: T4, c-Fms (Homo sapiens, UniProt P07333); experiment: Ba/F3 cell proliferation (WST-1), c-Fms; conditions: Ba/F3 cells expressing the enzyme, read-out: Cell-based assay IC50, c-Fms
T4 construct: expressed in transfected cells; host or cells: Ba/F3 (general description; not repeated for this kinase)
T4 sequence (P07333 20-972): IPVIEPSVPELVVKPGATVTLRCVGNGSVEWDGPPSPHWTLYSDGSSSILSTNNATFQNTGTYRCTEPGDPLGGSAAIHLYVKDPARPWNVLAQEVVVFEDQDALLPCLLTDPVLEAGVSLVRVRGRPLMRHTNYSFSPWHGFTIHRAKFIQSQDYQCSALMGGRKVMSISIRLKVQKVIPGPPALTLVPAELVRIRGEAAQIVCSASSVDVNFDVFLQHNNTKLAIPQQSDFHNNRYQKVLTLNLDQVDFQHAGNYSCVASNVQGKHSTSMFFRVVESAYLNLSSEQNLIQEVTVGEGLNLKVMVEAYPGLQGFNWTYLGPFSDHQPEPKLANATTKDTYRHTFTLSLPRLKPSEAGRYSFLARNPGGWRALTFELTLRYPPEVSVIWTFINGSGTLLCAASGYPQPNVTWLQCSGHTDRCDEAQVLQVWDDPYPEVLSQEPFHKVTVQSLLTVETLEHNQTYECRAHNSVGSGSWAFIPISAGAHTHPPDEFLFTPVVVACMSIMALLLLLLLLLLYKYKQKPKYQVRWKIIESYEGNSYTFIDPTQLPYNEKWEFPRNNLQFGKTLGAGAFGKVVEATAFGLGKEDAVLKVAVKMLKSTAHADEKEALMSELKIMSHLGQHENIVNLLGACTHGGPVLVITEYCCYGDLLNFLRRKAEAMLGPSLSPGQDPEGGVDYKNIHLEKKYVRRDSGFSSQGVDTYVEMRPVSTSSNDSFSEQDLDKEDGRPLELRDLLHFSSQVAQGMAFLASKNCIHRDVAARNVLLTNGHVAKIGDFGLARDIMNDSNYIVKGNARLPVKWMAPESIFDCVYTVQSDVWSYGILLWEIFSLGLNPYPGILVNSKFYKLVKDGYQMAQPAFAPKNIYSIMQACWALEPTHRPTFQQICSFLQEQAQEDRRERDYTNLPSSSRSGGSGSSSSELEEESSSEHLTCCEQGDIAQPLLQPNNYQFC

Btk = target: T5, Btk (Homo sapiens, UniProt Q06187); experiment: Recombinant kinase ELISA assay, Btk; format: biochemical; conditions: recombinant human enzyme; ELISA-based assay, poly(Glu,Tyr 4:1) substrate
T5 construct: Btk (2–659; BC109079); 6xHN (N); made in house; host or cells: baculovirus, Sf9 insect cells
T5 sequence (Q06187 2-659): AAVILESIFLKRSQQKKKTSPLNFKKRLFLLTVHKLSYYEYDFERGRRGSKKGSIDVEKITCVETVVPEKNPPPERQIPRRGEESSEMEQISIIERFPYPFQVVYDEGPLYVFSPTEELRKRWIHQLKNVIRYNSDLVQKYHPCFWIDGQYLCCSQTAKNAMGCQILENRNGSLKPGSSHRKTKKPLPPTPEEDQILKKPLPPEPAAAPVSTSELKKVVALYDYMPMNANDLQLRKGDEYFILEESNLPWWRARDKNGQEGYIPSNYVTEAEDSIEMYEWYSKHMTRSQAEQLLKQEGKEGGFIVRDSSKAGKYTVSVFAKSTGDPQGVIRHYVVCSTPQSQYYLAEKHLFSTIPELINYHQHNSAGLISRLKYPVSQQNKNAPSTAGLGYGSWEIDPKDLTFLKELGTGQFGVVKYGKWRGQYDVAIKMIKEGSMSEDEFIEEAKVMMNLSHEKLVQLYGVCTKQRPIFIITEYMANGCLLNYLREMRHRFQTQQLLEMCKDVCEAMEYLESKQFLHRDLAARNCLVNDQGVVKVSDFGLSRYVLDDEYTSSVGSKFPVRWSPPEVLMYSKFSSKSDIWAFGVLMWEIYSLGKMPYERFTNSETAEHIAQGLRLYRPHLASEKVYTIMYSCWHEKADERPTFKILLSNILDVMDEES
Procedure: as §1, §3

Focal adhesion kinase = Focal adhesion kinase (Homo sapiens, UniProt Q05397); experiment: Recombinant kinase ELISA assay, focal adhesion kinase; format: biochemical; conditions: recombinant human enzyme; ELISA-based assay, poly(Glu,Tyr 4:1) substrate
Procedure: as §1

CS(=O)(=O)O.CS(=O)(=O)O.Cc1ccc(NC(=O)c2ccc(CN3CCN(C)CC3)cc2)cc1Nc1nc(-c2cccnc2)cs1 [masitinib, 4-(4-methylpiperazin-1-ylmethyl)-N-[4-methyl-3-(4-pyridin-3ylthiazol-2-ylamino)phenyl]benzamide-mesylate methane sulfonic acid salt]
IC50 (Ba/F3 cells): > 5 µM
IC50 [1]: 0.01 to 0.03 µM
effect on cell viability (CBMC): no affect on cell viability
IC50 (Pim1): > 10 µM
IC50 (Alk): 9 ± 0.18 µM
mechanism of inhibition against ATP (recombinant human KIT; concentrations ≤500 nM): competitive inhibitor against ATP
mechanism of inhibition against ATP (recombinant human KIT; higher concentrations (>1 µM)): mixed mechanism of inhibition against ATP
solubility (Solubility; 0.1 M HCl): freely soluble
solubility (Solubility; 0.1 M NaOH): practically insoluble
solubility (Solubility; dimethylsulfoxide): freely soluble
solubility (Solubility; ethanol): slightly soluble
solubility (Solubility; n-hexane): practically insoluble
solubility (Solubility; propylene glycol): slightly soluble
solubility (Solubility; water): soluble
IC50 (c-Met): > 10 µM
IC50 [2]: > 10 µM
IC50 (c-Fms): 1 ± 0.03 µM
IC50 (Btk): > 10 µM
IC50 (Focal adhesion kinase): > 10 µM
